20 compounds from US12624038B2, “Molecules and methods related to treatment of uncontrolled cellular proliferation” (ST. JUDE CHILDREN'S RESEARCH HOSPITAL, priority 2019, dated 2026) can be followed below.

pEC50, pKd: −log10 of the molar value. “Also recorded” adds a separate entry of the source. Where two headings read alike, the source gives them in different places.

Data set [1] relates to MHH-CALL-4. Put plainly: Cytotoxicity assay (resazurin, 72 hours) in MHH-CALL-4 cells. It is filed as cell-based, human. As to conditions: for killing of MHH-CALL-4 cells (activity in words): correlated with degradation of GSPT1 and JAK2, FIG. 7F. On the technique in general: Alamar Blue is a resazurin reagent that responds to reducing activity.
Data set [2] concerns the target T1, JAK2 (Homo sapiens, UniProt O60674, I682F).
T1 construct: endogenous in cells; host or cells: MHH-CALL-4
Put plainly: Target degradation (Western Blot) in MHH-CALL-4 cells, JAK2. It is filed as cell-based. As to conditions: 100 nM PROTAC at 24 h.

Data set [3] concerns the target T2, IKZF1 (Homo sapiens, UniProt Q13422+Q96SW2).
T2 construct: endogenous in cells; host or cells: MHH-CALL-4
Put plainly: Target degradation (Western Blot) in MHH-CALL-4 cells, IKZF1. It is filed as cell-based. As to conditions: 100 nM PROTAC at 24 h. On the technique in general: A western blot detects proteins with antibodies after separation by electrophoresis.

Data set [4] relates to Human CD45+ leukemic cells from patient derived xenografts (PDX). The data set can be described thus: Ex vivo cytotoxicity (MTT) in PDX leukemic cells. The conditions noted are these: FIG. 6A.
Data set [5] has as its target T3, GSPT1 (Homo sapiens, UniProt P15170+Q96SW2).
T3 construct: endogenous in cells; host or cells: MHH-CALL-4
Put plainly: Target degradation (Western Blot) in MHH-CALL-4 cells, GSPT1. The class given is cell-based. As to conditions: 100 nM PROTAC at 24 h.

The target of data set [6] is TYK2 (Homo sapiens, UniProt P29597). The data set can be described thus: KdELECT Kd measurement (KINOMEscan platform), TYK2. It is filed as binding. Also noted: purchased Eurofins DiscoveRx. The conditions noted are these: read-out: Kd to JAK family kinases, TYK2.
TYK2, sequence (P29597 whole entry): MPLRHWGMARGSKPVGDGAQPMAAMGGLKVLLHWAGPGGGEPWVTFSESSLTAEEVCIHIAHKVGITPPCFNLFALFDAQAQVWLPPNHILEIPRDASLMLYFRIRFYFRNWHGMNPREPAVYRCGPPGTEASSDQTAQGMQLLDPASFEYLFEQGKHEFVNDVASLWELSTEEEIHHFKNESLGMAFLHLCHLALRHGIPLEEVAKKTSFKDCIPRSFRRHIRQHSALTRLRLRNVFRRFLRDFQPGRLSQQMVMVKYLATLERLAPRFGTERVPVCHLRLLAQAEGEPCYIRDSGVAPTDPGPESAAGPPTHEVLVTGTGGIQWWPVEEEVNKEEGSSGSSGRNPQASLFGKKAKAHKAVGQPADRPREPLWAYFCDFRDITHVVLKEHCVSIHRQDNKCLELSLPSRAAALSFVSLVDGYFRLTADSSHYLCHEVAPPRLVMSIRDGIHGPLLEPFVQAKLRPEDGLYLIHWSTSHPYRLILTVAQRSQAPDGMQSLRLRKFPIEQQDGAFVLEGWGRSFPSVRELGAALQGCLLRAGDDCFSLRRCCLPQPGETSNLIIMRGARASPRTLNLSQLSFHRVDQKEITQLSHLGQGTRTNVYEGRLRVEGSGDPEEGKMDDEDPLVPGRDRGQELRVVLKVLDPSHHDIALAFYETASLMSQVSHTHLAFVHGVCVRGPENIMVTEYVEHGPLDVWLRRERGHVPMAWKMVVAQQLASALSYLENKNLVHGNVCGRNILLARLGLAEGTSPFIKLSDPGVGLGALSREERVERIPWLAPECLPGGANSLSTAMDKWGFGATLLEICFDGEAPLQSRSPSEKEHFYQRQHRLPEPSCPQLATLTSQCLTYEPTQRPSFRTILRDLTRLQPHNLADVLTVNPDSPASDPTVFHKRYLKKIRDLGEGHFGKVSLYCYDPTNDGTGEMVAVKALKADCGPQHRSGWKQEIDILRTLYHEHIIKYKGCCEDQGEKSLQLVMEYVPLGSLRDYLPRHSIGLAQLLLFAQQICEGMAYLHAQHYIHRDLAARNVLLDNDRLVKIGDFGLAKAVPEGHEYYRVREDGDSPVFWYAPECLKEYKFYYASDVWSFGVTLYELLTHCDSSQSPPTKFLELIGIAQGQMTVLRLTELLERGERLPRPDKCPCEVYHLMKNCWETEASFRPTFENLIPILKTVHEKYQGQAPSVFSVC
Data set [7] in a line: Caco-2 cell permeability. It is filed as in vitro ADME. The conditions noted are these: human, Caco-2; A to B (Table 4); read-out: Cac2 Papp A/B. As for the experimental part: Compound Caco-2 cell permeability was determined using the Transwell® 0.4 μm polycarbonate membrane 96-well as described before (Uchida, et al. (2009) J Pharmacol Toxicol Methods 59(1): 39-43). Briefly, Caco-2 cells monolayers were incubated over 2 hours at 37° C. Fractions were collected from receivers (basal side, B), and concentrations were assessed by UPLC/MS (Waters; Milford, MA). All compounds were tested in triplicates. The A→B (or B→A) apparent permeability coefficients (Papp) of each compound were calculated using the equation, Papp=dQ/dt×1/AC0, where dQ/dt equals the flux of a drug across the monolayer, A equals the total insert well surface area, and C0 is the initial concentration of substrate in the donor compartment.
On the technique in general: Caco-2 cells form a polarised layer with tight junctions and transporters.

[8] abbreviates: Homo sapiens, MHHCALL4, Table 6, starred: EC50 from partial dose response curve, read-out: MHHCALL4 EC50 from partial dose response curve.
Where [9] appears, read: Homo sapiens, MHHCALL4, MHH-CALL-4 (Table 2), read-out: EC50 in MHH-CALL-4.
Setting [10] is: Homo sapiens, MHHCALL4, MHH-CALL-4 (Table 1), read-out: EC50.

T1 sequence (O60674 whole entry I682F): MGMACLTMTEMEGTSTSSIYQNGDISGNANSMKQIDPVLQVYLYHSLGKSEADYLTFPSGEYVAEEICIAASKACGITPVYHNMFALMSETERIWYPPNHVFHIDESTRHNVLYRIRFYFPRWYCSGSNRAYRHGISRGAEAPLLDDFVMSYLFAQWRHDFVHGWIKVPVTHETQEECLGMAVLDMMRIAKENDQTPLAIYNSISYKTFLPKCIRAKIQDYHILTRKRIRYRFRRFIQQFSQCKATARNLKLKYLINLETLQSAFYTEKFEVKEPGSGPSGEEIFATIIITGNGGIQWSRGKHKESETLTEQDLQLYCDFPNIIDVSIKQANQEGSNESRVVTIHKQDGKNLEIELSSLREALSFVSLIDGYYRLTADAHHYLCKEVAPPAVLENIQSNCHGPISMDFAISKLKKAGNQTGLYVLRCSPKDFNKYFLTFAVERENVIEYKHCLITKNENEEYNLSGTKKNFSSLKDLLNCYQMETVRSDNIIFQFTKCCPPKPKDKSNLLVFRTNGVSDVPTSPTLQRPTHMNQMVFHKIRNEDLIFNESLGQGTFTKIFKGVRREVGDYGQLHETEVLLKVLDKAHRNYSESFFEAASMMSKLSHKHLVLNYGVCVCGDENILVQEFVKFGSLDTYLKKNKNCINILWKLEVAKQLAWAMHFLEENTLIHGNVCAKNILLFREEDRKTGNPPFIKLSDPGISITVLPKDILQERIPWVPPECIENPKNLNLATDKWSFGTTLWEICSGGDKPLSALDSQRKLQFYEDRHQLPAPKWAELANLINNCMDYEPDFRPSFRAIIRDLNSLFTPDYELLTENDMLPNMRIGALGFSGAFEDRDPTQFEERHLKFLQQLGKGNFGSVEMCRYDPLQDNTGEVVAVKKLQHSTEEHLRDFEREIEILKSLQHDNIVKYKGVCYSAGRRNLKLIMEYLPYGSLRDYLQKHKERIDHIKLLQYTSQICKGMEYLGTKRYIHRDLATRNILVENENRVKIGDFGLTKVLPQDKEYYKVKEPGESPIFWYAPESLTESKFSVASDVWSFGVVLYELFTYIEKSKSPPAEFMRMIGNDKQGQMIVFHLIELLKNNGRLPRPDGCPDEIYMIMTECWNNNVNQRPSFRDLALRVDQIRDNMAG
T2 sequence (Q13422 whole entry): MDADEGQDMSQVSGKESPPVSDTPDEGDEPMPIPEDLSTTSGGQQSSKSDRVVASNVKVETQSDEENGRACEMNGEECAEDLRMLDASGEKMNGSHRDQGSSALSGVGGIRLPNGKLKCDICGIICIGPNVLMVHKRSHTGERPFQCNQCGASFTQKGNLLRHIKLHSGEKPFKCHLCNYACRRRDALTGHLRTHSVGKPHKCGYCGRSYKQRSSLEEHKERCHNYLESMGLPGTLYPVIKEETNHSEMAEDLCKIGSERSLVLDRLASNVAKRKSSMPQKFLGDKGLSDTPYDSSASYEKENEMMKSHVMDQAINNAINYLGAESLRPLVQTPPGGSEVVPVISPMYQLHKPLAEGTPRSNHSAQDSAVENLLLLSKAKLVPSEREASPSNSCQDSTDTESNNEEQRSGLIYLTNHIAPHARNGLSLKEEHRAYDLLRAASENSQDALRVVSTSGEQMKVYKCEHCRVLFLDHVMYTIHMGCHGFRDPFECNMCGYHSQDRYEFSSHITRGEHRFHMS
T2 sequence (Q96SW2 whole entry): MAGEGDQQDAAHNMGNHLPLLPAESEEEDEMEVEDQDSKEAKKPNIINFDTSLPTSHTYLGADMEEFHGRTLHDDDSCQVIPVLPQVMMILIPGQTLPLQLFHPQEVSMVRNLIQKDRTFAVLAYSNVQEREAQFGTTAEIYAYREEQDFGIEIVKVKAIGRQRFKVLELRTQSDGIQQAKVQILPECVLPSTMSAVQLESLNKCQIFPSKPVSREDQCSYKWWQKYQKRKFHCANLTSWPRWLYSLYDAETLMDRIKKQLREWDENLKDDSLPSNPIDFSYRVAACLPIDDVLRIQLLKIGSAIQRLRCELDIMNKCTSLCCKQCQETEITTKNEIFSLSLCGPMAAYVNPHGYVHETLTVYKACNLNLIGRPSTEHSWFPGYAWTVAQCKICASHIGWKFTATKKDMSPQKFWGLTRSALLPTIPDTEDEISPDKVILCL
T2 sequence (Q16531 whole entry partner): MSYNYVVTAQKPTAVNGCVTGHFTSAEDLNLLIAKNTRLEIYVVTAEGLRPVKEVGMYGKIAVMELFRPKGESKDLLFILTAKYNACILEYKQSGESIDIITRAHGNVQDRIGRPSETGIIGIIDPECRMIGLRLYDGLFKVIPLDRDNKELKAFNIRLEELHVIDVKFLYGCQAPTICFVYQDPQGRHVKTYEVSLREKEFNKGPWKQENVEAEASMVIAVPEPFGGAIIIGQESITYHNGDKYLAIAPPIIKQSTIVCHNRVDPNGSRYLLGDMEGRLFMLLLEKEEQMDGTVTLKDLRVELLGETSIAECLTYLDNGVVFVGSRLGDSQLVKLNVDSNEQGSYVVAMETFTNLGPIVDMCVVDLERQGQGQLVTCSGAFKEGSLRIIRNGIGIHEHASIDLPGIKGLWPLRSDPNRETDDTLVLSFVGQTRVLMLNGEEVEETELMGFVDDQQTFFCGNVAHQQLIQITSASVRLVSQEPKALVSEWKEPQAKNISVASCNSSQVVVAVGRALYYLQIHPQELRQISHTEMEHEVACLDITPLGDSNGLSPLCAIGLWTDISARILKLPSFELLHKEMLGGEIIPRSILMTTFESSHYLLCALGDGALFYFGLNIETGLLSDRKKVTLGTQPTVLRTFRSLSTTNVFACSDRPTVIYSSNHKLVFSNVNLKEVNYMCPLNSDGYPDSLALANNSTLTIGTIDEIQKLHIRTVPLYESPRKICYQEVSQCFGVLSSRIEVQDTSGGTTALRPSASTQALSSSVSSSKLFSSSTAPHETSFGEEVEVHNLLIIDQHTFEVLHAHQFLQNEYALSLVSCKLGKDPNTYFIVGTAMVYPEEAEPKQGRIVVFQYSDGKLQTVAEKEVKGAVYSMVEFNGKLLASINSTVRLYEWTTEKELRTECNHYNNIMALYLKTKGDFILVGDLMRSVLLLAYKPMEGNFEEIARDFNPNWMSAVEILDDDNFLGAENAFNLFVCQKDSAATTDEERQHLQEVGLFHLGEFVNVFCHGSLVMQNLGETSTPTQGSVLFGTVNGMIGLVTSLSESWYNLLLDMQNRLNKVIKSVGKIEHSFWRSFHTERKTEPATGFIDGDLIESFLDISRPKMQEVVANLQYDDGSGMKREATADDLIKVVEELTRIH
T3 sequence (P15170 whole entry): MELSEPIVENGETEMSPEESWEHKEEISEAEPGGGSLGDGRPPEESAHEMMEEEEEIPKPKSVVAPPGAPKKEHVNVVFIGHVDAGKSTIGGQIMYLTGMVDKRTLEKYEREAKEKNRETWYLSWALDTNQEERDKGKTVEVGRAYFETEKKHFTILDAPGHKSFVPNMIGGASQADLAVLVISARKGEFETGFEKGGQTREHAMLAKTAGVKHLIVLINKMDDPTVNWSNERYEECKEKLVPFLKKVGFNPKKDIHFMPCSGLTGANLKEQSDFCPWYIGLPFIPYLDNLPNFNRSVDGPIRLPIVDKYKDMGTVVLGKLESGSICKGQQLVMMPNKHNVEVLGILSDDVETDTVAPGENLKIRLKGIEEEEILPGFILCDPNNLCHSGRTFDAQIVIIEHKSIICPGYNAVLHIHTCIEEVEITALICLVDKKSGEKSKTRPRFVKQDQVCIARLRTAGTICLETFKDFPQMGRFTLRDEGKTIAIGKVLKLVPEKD
T3 sequence (Q96SW2 whole entry): as the sequence (Q96SW2 whole entry) above
T3 sequence (Q16531 whole entry partner): as the sequence (Q16531 whole entry partner) above

Usually pEC50 stands for the negative decadic logarithm of the EC50, by convention in mol/L. `CCS(=O)(=O)N1CC(CC#N)(n2cc(-c3nc(Nc4ccc(C(=O)NCCCN5CCN(c6ccc7c(c6)C(=O)N(C6CCC(=O)NC6=O)C7=O)CC5)cc4)nc4[nH]ccc34)cn2)C1` (centres unmarked) [Compound 56]: in data set [1] (setting [8]), the pEC50 was 6.25. Also, in data set [1], the “killing of MHH-CALL-4 cells (activity in words)” value (from here on “killing of MHH-CALL-4 cells”) is recorded as “intermediately effective”. The “Target Degradation (Western Blot) JAK2” value in data set [2] was 2 (2 = Medium (20-40% degradation at 24 h)). In addition, in data set [3], the “Target Degradation (Western Blot) IKZF1” value is recorded as 1 (1 = None (<20% degradation at 24 h)). For `CCS(=O)(=O)N1CC(CC#N)(n2cc(-c3nc(Nc4ccc(C(=O)NCCCCNc5cccc6c5C(=O)N(C5CCC(=O)N(C)C5=O)C6=O)cc4)nc4[nH]ccc34)cn2)C1` (centres unmarked) [Compound 61], the pEC50 in data set [1] (setting [8]) is 7.29. Besides, the “killing of MHH-CALL-4 cells” value in data set [1] is on record as “intermediately effective”. The “Target Degradation (Western Blot) JAK2” value in data set [2] is on record as 1 (1 = None (<20% degradation at 24 h)). Besides, in data set [3], the “Target Degradation (Western Blot) IKZF1” value is reported as 2 (2 = Medium (20-40% degradation at 24 h)). Take `O=C1CCC(N2C(=O)c3ccccc3C2=O)C(=O)N1` (centres unmarked) [Thalidomide, thalidomide, reference compound]: in data set [1] (setting [9]), the pEC50 was 4.22.

As to `CCCn1cc(-c2nc(Nc3ccc(NC(=O)CCOCCOCCOCCOCCOCCOCCNc4cccc5c4C(=O)N(C4CCC(=O)NC4=O)C5=O)cc3)nc3[nH]ccc23)cn1` (centres unmarked) [SJ000986341], in data set [1] (setting [10]), the pEC50 is 5.23. On to `CC(=O)Nc1cc(Oc2ccc3c(nc(Nc4ccc(F)cc4F)n3C)c2C)ccn1` [CHZ868, reference compound], for which the pEC50 in data set [1] (MHH-CALL-4 (Table 2), read-out: EC50 in MHH-CALL-4) is 6.74. In addition, the “cytotoxicity in PDX cells ex vivo” value in data set [4] is “not”. `CCS(=O)(=O)N1CC(CC#N)(n2cc(-c3nc(Nc4ccc(C(=O)NCCCNc5ccc6c(c5)C(=O)N(C5CCC(=O)NC5=O)C6=O)cc4)nc4[nH]ccc34)cn2)C1` (centres unmarked) [Compound 53]: the pEC50 in data set [1] (setting [8]) is 7.46. For the same compound, the “killing of MHH-CALL-4 cells” value in data set [1] was “intermediately effective”. Besides, the “Target Degradation (Western Blot) JAK2” value in data set [2] is 1 (1 = None (<20% degradation at 24 h)). The “Target Degradation (Western Blot) GSPT1” value in data set [5] is 3 (3 = Strong (>60% degradation at 24 h)). Regarding `CCCn1cc(-c2nc(Nc3ccc(NC(=O)CCOCCOCCOCCOCCOCCNc4cccc5c4C(=O)N(C4CCC(=O)NC4=O)C5=O)cc3)nc3[nH]ccc23)cn1` (centres unmarked) [SJ000986342], in data set [1] (setting [10]), the pEC50 was 5.16. Regarding `CCCn1cc(-c2nc(Nc3ccc(C(=O)NCCOCCOCCOCCOCCNc4cccc5c4C(=O)N(C4CCC(=O)NC4=O)C5=O)cc3)nc3[nH]ccc23)cn1` (centres unmarked) [SJ000986049], in data set [1] (setting [10]), the pEC50 is 5.64. For `CCS(=O)(=O)N1CC(CC#N)(n2cc(-c3nc(Nc4ccc(C(=O)NCCCCNc5ccc6c(c5)C(=O)N(C5CCC(=O)NC5=O)C6=O)cc4)nc4[nH]ccc34)cn2)C1` (centres unmarked) [Compound 80], the negative-log EC50 (pEC50) in data set [1] (Homo sapiens, MHHCALL4, Table 6, no star, read-out: MHHCALL4 EC50) was under 5.26. In data set [1], the “killing of MHH-CALL-4 cells” value is “relatively low activity”. Besides, in data set [2], the “Target Degradation (Western Blot) JAK2” value is 1 (1 = None (<20% degradation at 24 h)). Also, in data set [3], the “Target Degradation (Western Blot) IKZF1” value is given as 1 (1 = None (<20% degradation at 24 h)). A word on the pKd: it is −log10 of the Kd, conventionally taken in molar units. In the case of `CCS(=O)(=O)N1CC(CC#N)(n2cc(-c3ncnc4[nH]ccc34)cn2)C1` [Baricitinib, baricitinib, reference compound], the pKd in data set [6] was 8.89. Turning to `CCS(=O)(=O)N1CC(CC#N)(n2cc(-c3nc(Nc4ccc(C(=O)NCCN5CCN(c6ccc7c(c6)C(=O)N(C6CCC(=O)NC6=O)C7=O)CC5)cc4)nc4[nH]ccc34)cn2)C1` (centres unmarked) [Compound 8], the “killing of MHH-CALL-4 cells” value in data set [1] was “intermediately effective; also recorded: reduced activity”. In addition, in data set [7], the Papp A→B at 2 h is 0.002 ×10⁻⁶ cm/s.

Regarding `CCCn1cc(-c2nc(NCCOCCOCCOCCOCCNC(=O)CNc3cccc4c3CN(C3CCC(=O)NC3=O)C4=O)nc3[nH]ccc23)cn1` (centres unmarked) [SJ000986079, 2-((2-(2,6-dioxopiperidin-3-yl)-1-oxoisoindolin-4-yl)amino)-N-(14-((4-(1-propyl-1H-pyrazol-4-yl)-7H-pyrrolo[2,3-d]pyrimidin-2-yl)amino)-3,6,9,12-tetraoxatetradecyl)acetamide], in data set [1] (setting [10]), the pEC50 was under 4.00. On to `CCS(=O)(=O)N1CC(CC#N)(n2cc(-c3nc(Nc4ccc(C(=O)NCCCNC(=O)COc5cccc6c5C(=O)N(C5CCC(=O)NC5=O)C6=O)cc4)nc4[nH]ccc34)cn2)C1` (centres unmarked) [Compound 59], for which the pEC50 in data set [1] (setting [8]) is 5.38. Further, in data set [1], the “killing of MHH-CALL-4 cells” value is listed as “relatively low activity”. In addition, the “Target Degradation (Western Blot) JAK2” value in data set [2] is recorded as 1 (1 = None (<20% degradation at 24 h)). Further, in data set [3], the “Target Degradation (Western Blot) IKZF1” value is 1 (1 = None (<20% degradation at 24 h)). Turning to `N#CC[C@H](C1CCCC1)n1cc(-c2ncnc3[nH]ccc23)cn1` [Ruxolitinib, ruxolitinib, reference compound], the pEC50 in data set [1] (Homo sapiens, MHHCALL4, read-out: EC50 in MHH-CALL-4) was 4.59; in data set [1] (Homo sapiens, MHHCALL4, read-out: MHHCALL4 EC50) it was 4.59.

For the compound `CCCn1cc(-c2nc(NCCOCCOCCOCCOCCOCCOCCNC(=O)CNc3cccc4c3CN(C3CCC(=O)NC3=O)C4=O)nc3[nH]ccc23)cn1` (centres unmarked) [SJ000986078, 2-((2-(2,6-dioxopiperidin-3-yl)-1-oxoisoindolin-4-yl)amino)-N-(20-((4-(1-propyl-1H-pyrazol-4-yl)-7H-pyrrolo[2,3-d]pyrimidin-2-yl)amino)-3,6,9,12,15,18-hexaoxaicosyl)acetamide], the pEC50 in data set [1] (setting [10]) was under 4.00.

On to `Nc1cccc2c1CN(C1CCC(=O)NC1=O)C2=O` (centres unmarked) [Lenalidomide, lenalidomide, reference compound], for which the pEC50 in data set [1] (setting [9]) was 4.46. In the case of `CCCn1cc(-c2nc(Nc3ccc(C(=O)NCCOCCOCCOCCOCCOCCOCCNc4cccc5c4C(=O)N(C4CCC(=O)NC4=O)C5=O)cc3)nc3[nH]ccc23)cn1` (centres unmarked) [SJ000986050], the pEC50 in data set [1] (setting [10]) is 6.14. As to `Nc1cccc2c1C(=O)N(C1CCC(=O)NC1=O)C2=O` (centres unmarked) [Pomalidomide, pomalidomide, reference compound], the pEC50 in data set [1] (setting [9]) was 4.20. As to `CCCn1cc(-c2nc(Nc3ccc(C(=O)NCCOCCOCCNc4cccc5c4C(=O)N(C4CCC(=O)NC4=O)C5=O)cc3)nc3[nH]ccc23)cn1` (centres unmarked) [SJ000986339], in data set [1] (setting [10]), the pEC50 is under 4.00. Regarding `CCCn1cc(-c2nc(Nc3ccc(C(=O)NCCOCCOCCOCCOCCOCCOCCNc4cccc5c4C(=O)N(C4CCCNC4=O)C5=O)cc3)nc3[nH]ccc23)cn1` (centres unmarked) [SJ000986343], the pEC50 in data set [1] (setting [10]) was 4.89.
